Laboratory results published in patent publication US6989143B1, “Depletion method of blood plasma ascorbate” (priority 2000, dated 2006).

Assays:
[1] = Plasma ascorbate level in mice given sodium ascorbate or L-gulono-γ-lactone (HPLC-ECD); details: 5 mmole/kg, intraperitoneal
Procedure: Time-dependent changes of plasma ascorbate level in mice given sodium ascorbate (-o-) and L-gulono-γ-lactone (-•-). Drugs were dissolved in distilled water and administered by intraperitoneal injections, both at 5 mmole/kg. Blood was taken from each animal time-sequentially for the assay of plasma ascorbate with HPLC-ECD, as described in MATERIALS AND METHODS. Zero time control animals were given 0.2 ml of normal saline. Data represent Mean±SD (n=3−5).
Specific pathogen-free female BALB/c mice (body weight, ca. 25 g) were used in the present study. Animals were obtained from Dae-Han Laboratory Animal Center (Daejeon, Korea) and cared for according to the ILAR guidelines in the animal care facility of Samsung Biomedical Research Center (Seoul, Korea). They were fed a diet from Jell Laboratory Chow (Seoul, Korea). Feed and water were offered ad libitum.
The animal was anesthetized with diethyl ether vapour and blood was obtained by choroidal venous plexus. About one ml of blood was collected into a microcentrifuge tube that contained 50 μl of 130 mM sodium citrate as an anticoagulant. […] The ascorbate content in the supernatant was measured directly by HPLC method. An aliquot of the sample was treated with 100 mM dithiothreitol at neutral pH to reduce dehydroascorbate to ascorbate, and then total ascorbate content was measured. […]

[2] = tested on: pre-leukemia, or myelodysplastic syndromes(MDS); details: in vitro; cited from earlier work
leukemic cells = details: in vitro, small number of patients; cited from earlier work

O=C1O[C@H]([C@@H](O)CO)C([O-])=C1O.[Na+] [ascorbate, Sodium ascorbate]
return of accumulated plasma ascorbate to normal levels [1]: rapidly diminished to normal levels within a few hours

O=C1O[C@H]([C@@H](O)CO)C(O)=C1O [LAA, L-ascorbic acid]
share of MDS showing growth enhancement with LAA [2]: 30%
share of MDS showing growth suppression with LAA [2]: 16%
fraction of patients whose leukemic cell growth was modulated by LAA (leukemic cells): approximately ½
